Data taken from PubChem BioAssay AID1963975 (Molecular Pharmacology Branch, DTP, NCI, 2024).

Tested on: 624824-186-R-J2-PDC multicell spheroids, viability
Assay: Anticancer human tumor 624824-186-R-J2-PDC patient-derived colon adenocarcinoma cell line growth inhibition [PI3K]
Settings: for IC50: curve of first compound; for viability, T/C: stronger effect = lower value
Outline: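 High-throughput combination screen: PI3K inhibitors crossed with targeted small molecules on complex spheroids of tumor cells, HUVEC and MSCs at 37 degrees C, 5% CO2. Top concentration was at or near clinical Cmax (otherwise 10 microM), with half-log decrements.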

[1] = second compound 0.0316 µM, first compound 0.000316 µM
[2] = second compound 0.0316 µM, first compound 0.001 µM
[3] = second compound 0.0316 µM, first compound 0.00316 µM
[4] = second compound 0.0316 µM, first compound 0.01 µM
[5] = second compound 0.0316 µM, first compound 0.0316 µM
[6] = second compound 0.0316 µM, first compound 0.1 µM
[7] = second compound 0.1 µM, first compound 0.000316 µM
[8] = second compound 0.1 µM, first compound 0.001 µM
[9] = second compound 0.1 µM, first compound 0.00316 µM
[10] = second compound 0.1 µM, first compound 0.01 µM
[11] = second compound 0.1 µM, first compound 0.0316 µM
[12] = second compound 0.1 µM, first compound 0.1 µM
[13] = second compound 0.316 µM, first compound 0.000316 µM
[14] = second compound 0.316 µM, first compound 0.001 µM
[15] = second compound 0.316 µM, first compound 0.00316 µM
[16] = second compound 0.316 µM, first compound 0.01 µM
[17] = second compound 0.316 µM, first compound 0.0316 µM
[18] = second compound 0.316 µM, first compound 0.1 µM
[19] = second compound 1 µM, first compound 0.000316 µM
[20] = second compound 1 µM, first compound 0.001 µM
[21] = second compound 1 µM, first compound 0.00316 µM
[22] = second compound 1 µM, first compound 0.01 µM
[23] = second compound 1 µM, first compound 0.0316 µM
[24] = second compound 1 µM, first compound 0.1 µM
[25] = second compound 3.16 µM, first compound 0.000316 µM
[26] = second compound 3.16 µM, first compound 0.001 µM
[27] = second compound 3.16 µM, first compound 0.00316 µM
[28] = second compound 3.16 µM, first compound 0.01 µM
[29] = second compound 3.16 µM, first compound 0.0316 µM
[30] = second compound 3.16 µM, first compound 0.1 µM
[31] = second compound 10 µM, first compound 0.000316 µM
[32] = second compound 10 µM, first compound 0.001 µM
[33] = second compound 10 µM, first compound 0.00316 µM
[34] = second compound 10 µM, first compound 0.01 µM
[35] = second compound 10 µM, first compound 0.0316 µM
[36] = second compound 10 µM, first compound 0.1 µM
[37] = second compound 0.0316 µM, first compound 0.316 µM
[38] = second compound 0.0316 µM, first compound 1 µM
[39] = second compound 0.0316 µM, first compound 3.16 µM
[40] = second compound 0.0316 µM, first compound 10 µM
[41] = second compound 0.1 µM, first compound 0.316 µM
[42] = second compound 0.1 µM, first compound 1 µM
[43] = second compound 0.1 µM, first compound 3.16 µM
[44] = second compound 0.1 µM, first compound 10 µM
[45] = second compound 0.316 µM, first compound 0.316 µM
[46] = second compound 0.316 µM, first compound 1 µM
[47] = second compound 0.316 µM, first compound 3.16 µM
[48] = second compound 0.316 µM, first compound 10 µM
[49] = second compound 1 µM, first compound 0.316 µM
[50] = second compound 1 µM, first compound 1 µM
[51] = second compound 1 µM, first compound 3.16 µM
[52] = second compound 1 µM, first compound 10 µM
[53] = second compound 3.16 µM, first compound 0.316 µM
[54] = second compound 3.16 µM, first compound 1 µM
[55] = second compound 3.16 µM, first compound 3.16 µM
[56] = second compound 3.16 µM, first compound 10 µM
[57] = second compound 10 µM, first compound 0.316 µM
[58] = second compound 10 µM, first compound 1 µM
[59] = second compound 10 µM, first compound 3.16 µM
[60] = second compound 10 µM, first compound 10 µM
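Also: spheroids exposed to agents for 7 days before viability read.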
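For viability, T/C in this document: 100% = DMSO vehicle treated spheroids.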

CC(=O)c1c(C)c2cnc(Nc3ccc(N4CCNCC4)cn3)nc2n(C2CCCC2)c1=O + Cc1nc(NC(=O)N2CCCC2C(N)=O)sc1-c1ccnc(C(C)(C)C(F)(F)F)c1
IC50 (second compound 0.0316 µM): > 0.1 µM
IC50 (second compound 0.1 µM): > 0.1 µM
IC50 (second compound 0.316 µM): > 0.1 µM
IC50 (second compound 1 µM): > 0.1 µM
IC50 (second compound 3.16 µM): > 0.1 µM
IC50 (second compound 10 µM): > 0.1 µM
viability, T/C [1]: 81.6%
viability, T/C [2]: 72.8%
viability, T/C [3]: 83.6%
viability, T/C [4]: 79.2%
viability, T/C [5]: 74.1%
viability, T/C [6]: 82.8%
viability, T/C [7]: 98.2%
viability, T/C [8]: 105%
viability, T/C [9]: 93.6%
viability, T/C [10]: 75.9%
viability, T/C [11]: 91.4%
viability, T/C [12]: 76.2%
viability, T/C [13]: 89%
viability, T/C [14]: 80.6%
viability, T/C [15]: 85%
viability, T/C [16]: 97.4%
viability, T/C [17]: 88.3%
viability, T/C [18]: 88.7%
viability, T/C [19]: 96.3%
viability, T/C [20]: 78.9%
viability, T/C [21]: 88.5%
viability, T/C [22]: 87.2%
viability, T/C [23]: 82.5%
viability, T/C [24]: 77.2%
viability, T/C [25]: 80.9%
viability, T/C [26]: 83.6%
viability, T/C [27]: 91.1%
viability, T/C [28]: 80.7%
viability, T/C [29]: 85.1%
viability, T/C [30]: 75.1%
viability, T/C [31]: 73.8%
viability, T/C [32]: 67.5%
viability, T/C [33]: 72.1%
viability, T/C [34]: 75.9%
viability, T/C [35]: 66%
viability, T/C [36]: 56.9%

CC(C)n1nc(-c2ccc3oc(N)nc3c2)c2c(N)ncnc21 + Cc1nc(NC(=O)N2CCCC2C(N)=O)sc1-c1ccnc(C(C)(C)C(F)(F)F)c1
IC50 (second compound 0.0316 µM): > 0.1 µM
IC50 (second compound 0.1 µM): > 0.1 µM
IC50 (second compound 0.316 µM): > 0.1 µM
IC50 (second compound 1 µM): > 0.1 µM
IC50 (second compound 3.16 µM): > 0.1 µM
IC50 (second compound 10 µM): 0.0375 µM
viability, T/C [1]: 68.1%
viability, T/C [2]: 74%
viability, T/C [3]: 59.7%
viability, T/C [4]: 67.7%
viability, T/C [5]: 58.7%
viability, T/C [6]: 67.8%
viability, T/C [7]: 79.1%
viability, T/C [8]: 64.5%
viability, T/C [9]: 65.4%
viability, T/C [10]: 62.5%
viability, T/C [11]: 74%
viability, T/C [12]: 75%
viability, T/C [13]: 86.9%
viability, T/C [14]: 69%
viability, T/C [15]: 81.6%
viability, T/C [16]: 64.7%
viability, T/C [17]: 60.9%
viability, T/C [18]: 67.7%
viability, T/C [19]: 79.4%
viability, T/C [20]: 61.1%
viability, T/C [21]: 61%
viability, T/C [22]: 70.5%
viability, T/C [23]: 67.1%
viability, T/C [24]: 63.6%
viability, T/C [25]: 72.2%
viability, T/C [26]: 61.3%
viability, T/C [27]: 66.1%
viability, T/C [28]: 65.9%
viability, T/C [29]: 69.7%
viability, T/C [30]: 53.7%
viability, T/C [31]: 68.2%
viability, T/C [32]: 74%
viability, T/C [33]: 65.8%
viability, T/C [34]: 61.5%
viability, T/C [35]: 51.8%
viability, T/C [36]: 41.1%

CC1(C)CCC(CN2CCN(c3ccc(C(=O)NS(=O)(=O)c4ccc(NCC5CCOCC5)c([N+](=O)[O-])c4)c(Oc4cnc5[nH]ccc5c4)c3)CC2)=C(c2ccc(Cl)cc2)C1 + Cc1nc(NC(=O)N2CCCC2C(N)=O)sc1-c1ccnc(C(C)(C)C(F)(F)F)c1
IC50 (second compound 0.0316 µM): > 10 µM
IC50 (second compound 0.1 µM): > 10 µM
IC50 (second compound 0.316 µM): > 10 µM
IC50 (second compound 1 µM): > 10 µM
IC50 (second compound 3.16 µM): > 10 µM
IC50 (second compound 10 µM): 6.9 µM
viability, T/C [5]: 103%
viability, T/C [6]: 93.7%
viability, T/C [37]: 95.9%
viability, T/C [38]: 68.5%
viability, T/C [39]: 70.9%
viability, T/C [40]: 67.1%
viability, T/C [11]: 84.3%
viability, T/C [12]: 88.3%
viability, T/C [41]: 88.2%
viability, T/C [42]: 80.8%
viability, T/C [43]: 84.1%
viability, T/C [44]: 51.7%
viability, T/C [17]: 82.9%
viability, T/C [18]: 86.9%
viability, T/C [45]: 75.6%
viability, T/C [46]: 72.1%
viability, T/C [47]: 67.1%
viability, T/C [48]: 67.5%
viability, T/C [23]: 91.3%
viability, T/C [24]: 78.9%
viability, T/C [49]: 79.6%
viability, T/C [50]: 80.3%
viability, T/C [51]: 100%
viability, T/C [52]: 77.3%
viability, T/C [29]: 68.1%
viability, T/C [30]: 76.9%
viability, T/C [53]: 80.3%
viability, T/C [54]: 94.7%
viability, T/C [55]: 83.6%
viability, T/C [56]: 50.4%
viability, T/C [35]: 73%
viability, T/C [36]: 79.4%
viability, T/C [57]: 68.5%
viability, T/C [58]: 74.3%
viability, T/C [59]: 82.6%
viability, T/C [60]: 37.9%

CCCS(=O)(=O)Nc1ccc(F)c(C(=O)c2c[nH]c3ncc(-c4ccc(Cl)cc4)cc23)c1F + Cc1nc(NC(=O)N2CCCC2C(N)=O)sc1-c1ccnc(C(C)(C)C(F)(F)F)c1
IC50 (second compound 0.0316 µM): > 10 µM
IC50 (second compound 0.1 µM): 7.11 µM
IC50 (second compound 0.316 µM): 6.6 µM
IC50 (second compound 1 µM): 5.13 µM
IC50 (second compound 3.16 µM): 1.04 µM
IC50 (second compound 10 µM): 0.455 µM
viability, T/C [5]: 68%
viability, T/C [6]: 77.2%
viability, T/C [37]: 61.6%
viability, T/C [38]: 76.8%
viability, T/C [39]: 87.3%
viability, T/C [40]: 42.2%
viability, T/C [11]: 84%
viability, T/C [12]: 64.8%
viability, T/C [41]: 61.2%
viability, T/C [42]: 91.9%
viability, T/C [43]: 96.5%
viability, T/C [44]: 37.7%
viability, T/C [17]: 72.3%
viability, T/C [18]: 72.7%
viability, T/C [45]: 53.8%
viability, T/C [46]: 73.1%
viability, T/C [47]: 78.1%
viability, T/C [48]: 38.9%
viability, T/C [23]: 74.6%
viability, T/C [24]: 50.7%
viability, T/C [49]: 54.4%
viability, T/C [50]: 65.6%
viability, T/C [51]: 75.9%
viability, T/C [52]: 30.4%
viability, T/C [29]: 79.6%
viability, T/C [30]: 60.6%
viability, T/C [53]: 56.4%
viability, T/C [54]: 51.7%
viability, T/C [55]: 52%
viability, T/C [56]: 23.2%
viability, T/C [35]: 58.7%
viability, T/C [36]: 50%
viability, T/C [57]: 49.9%
viability, T/C [58]: 45.1%
viability, T/C [59]: 41.1%
viability, T/C [60]: 19%

C[C@@H](NC(=O)c1ncnc(N)c1Cl)c1ncc(C(=O)Nc2cc(C(F)(F)F)c(Cl)cn2)s1 + Cc1nc(NC(=O)N2CCCC2C(N)=O)sc1-c1ccnc(C(C)(C)C(F)(F)F)c1
IC50 (second compound 0.0316 µM): > 10 µM
IC50 (second compound 0.1 µM): > 10 µM
IC50 (second compound 0.316 µM): > 10 µM
IC50 (second compound 1 µM): > 10 µM
IC50 (second compound 3.16 µM): > 10 µM
IC50 (second compound 10 µM): 1.17 µM
viability, T/C [5]: 103%
viability, T/C [6]: 103%
viability, T/C [37]: 91.8%
viability, T/C [38]: 84.2%
viability, T/C [39]: 73.2%
viability, T/C [40]: 82.4%
viability, T/C [11]: 80.8%
viability, T/C [12]: 84.2%
viability, T/C [41]: 85.7%
viability, T/C [42]: 76.1%
viability, T/C [43]: 84.2%
viability, T/C [44]: 85.5%
viability, T/C [17]: 106%
viability, T/C [18]: 99.8%
viability, T/C [45]: 87.7%
viability, T/C [46]: 63.5%
viability, T/C [47]: 76.2%
viability, T/C [48]: 81.1%
viability, T/C [23]: 101%
viability, T/C [24]: 96.1%
viability, T/C [49]: 102%
viability, T/C [50]: 70.7%
viability, T/C [51]: 68.3%
viability, T/C [52]: 71.5%
viability, T/C [29]: 87.4%
viability, T/C [30]: 92.6%
viability, T/C [53]: 88.8%
viability, T/C [54]: 70.7%
viability, T/C [55]: 58.1%
viability, T/C [56]: 49.7%
viability, T/C [35]: 78%
viability, T/C [36]: 80.4%
viability, T/C [57]: 63.4%
viability, T/C [58]: 54.7%
viability, T/C [59]: 38%
viability, T/C [60]: 40.1%
